ChEMBL document CHEMBL3217491, “Design, synthesis and biological evaluation of imidazopyridine/pyrimidine-chalcone derivatives as potential anticancer agents” (2010)
Active and inactive are the calls of the source. The calls are words filed in the database; no cut-off is given here.

Legend:
[1] = Growth inhibition of human OVCAR8 cells after 48 hrs by SRB assay; type: functional; settings: OVCAR-8, 48 h
K562 = assay: Growth inhibition of human K562 cells after 48 hrs by SRB assay; type: functional; settings: K562, 48 h
MCF7 [2] = assay: Cell cycle arrest in human MCF7 cells assessed as accumulation at G2/M phase at 4 uM after 24 hrs by propidium iodide staining-based flow cytometry (reference value: 15.79%); type: functional
SK-MEL-2 = assay: Growth inhibition of human SK-MEL-2 cells after 48 hrs by SRB assay; type: functional; settings: SK-MEL-2, 48 h
SNB-19 = assay: Growth inhibition of human SNB19 cells after 48 hrs by SRB assay; type: functional; settings: SNB-19, 48 h
[3] = Growth inhibition of human NCI-ADR-RES cells after 48 hrs by SRB assay; type: functional
[4] = Growth inhibition of human MOLT4 cells after 48 hrs by SRB assay; type: functional; settings: MOLT-4, 48 h
SK-MEL-28 = assay: Growth inhibition of human SK-MEL-28 cells after 48 hrs by SRB assay; type: functional; settings: SK-MEL-28, 48 h
HL-60(TB) = assay: Growth inhibition of human HL-60(TB) cells after 48 hrs by SRB assay; type: functional; settings: HL-60, 48 h
[5] = Growth inhibition of human UO31 cells after 48 hrs by SRB assay; type: functional; settings: UO-31, 48 h
T47D = assay: Growth inhibition of human T47D cells after 48 hrs by SRB assay; type: functional
KM12 = assay: Growth inhibition of human KM12 cells after 48 hrs by SRB assay; type: functional; settings: KM12, 48 h
[6] = Growth inhibition of human BT549 cells after 48 hrs by SRB assay; type: functional; settings: BT-549, 48 h
CCRF-CEM = assay: Growth inhibition of human CCRF-CEM cells after 48 hrs by SRB assay; type: functional
MCF7 [7] = assay: Cell cycle arrest in human MCF7 cells assessed as accumulation at S phase at 4 uM after 24 hrs by propidium iodide staining-based flow cytometry (reference value: 20.17%); type: functional
[8] = Growth inhibition of human SF539 cells after 48 hrs by SRB assay; type: functional; settings: SF-539, 48 h
[9] = Growth inhibition of human LOXIMVI cells after 48 hrs by SRB assay; type: functional; settings: LOX IMVI
786-0 = assay: Growth inhibition of human 786-0 cells after 48 hrs by SRB assay; type: functional; settings: 786-0, 48 h
HCT-116 = assay: Growth inhibition of human HCT116 cells after 48 hrs by SRB assay; type: functional; settings: HCT-116, 48 h
DU-145 = assay: Growth inhibition of human DU145 cells after 48 hrs by SRB assay; type: functional; settings: DU-145, 48 h
SN12C = assay: Growth inhibition of human SN12C cells after 48 hrs by SRB assay; type: functional
[10] = Growth inhibition of human OVCAR5 cells after 48 hrs by SRB assay; type: functional; settings: OVCAR-5, 48 h
[11] = Growth inhibition of human UACC62 cells after 48 hrs by SRB assay; type: functional; settings: UACC-62, 48 h
ACHN = assay: Growth inhibition of human ACHN cells after 48 hrs by SRB assay; type: functional
[12] = Growth inhibition of human HOP92 cells after 48 hrs by SRB assay; type: functional; settings: HOP-92, 48 h
[13] = Growth inhibition of human HCT15 cells after 48 hrs by SRB assay; type: functional; settings: HCT-15, 48 h
SNB-75 = assay: Growth inhibition of human SNB75 cells after 48 hrs by SRB assay; type: functional; settings: SNB-75, 48 h
TK-10 = assay: Growth inhibition of human TK10 cells after 48 hrs by SRB assay; type: functional; settings: TK-10, 48 h
SK-MEL-5 = assay: Growth inhibition of human SK-MEL-5 cells after 48 hrs by SRB assay; type: functional; settings: SK-MEL-5, 48 h
MDA-MB-468 = assay: Growth inhibition of human MDA-MB-468 cells after 48 hrs by SRB assay; type: functional; settings: MDA-MB-468, 48 h
CAKI-1 = assay: Growth inhibition of human Caki1 cells after 48 hrs by SRB assay; type: functional; settings: CAKI-1, 48 h
A549 = assay: Growth inhibition of human A549 cells after 48 hrs by SRB assay; type: functional; settings: A549, 48 h
HT-29 = assay: Growth inhibition of human HT-29 cells after 48 hrs by SRB assay; type: functional; settings: HT-29, 48 h
SK-OV-3 = assay: Growth inhibition of human SKOV3 cells after 48 hrs by SRB assay; type: functional; settings: SK-OV-3, 48 h
NCI-H522 = assay: Growth inhibition of human NCI-H522 cells after 48 hrs by SRB assay; type: functional; settings: NCI-H522, 48 h
HOP-62 = assay: Growth inhibition of human HOP62 cells after 48 hrs by SRB assay; type: functional; settings: HOP-62, 48 h
M14 = assay: Growth inhibition of human M14 cells after 48 hrs by SRB assay; type: functional; settings: M14, 48 h
SR = assay: Growth inhibition of human SR cells after 48 hrs by SRB assay; type: functional
PC-3 = assay: Growth inhibition of human PC3 cells after 48 hrs by SRB assay; type: functional; settings: PC-3, 48 h
[14] = Growth inhibition of human UACC257 cells after 48 hrs by SRB assay; type: functional; settings: UACC-257, 48 h
IGROV-1 = assay: Growth inhibition of human IGROV1 cells after 48 hrs by SRB assay; type: functional; settings: IGROV-1, 48 h
NCI-H460 = assay: Growth inhibition of human NCI-H460 cells after 48 hrs by SRB assay; type: functional; settings: NCI-H460, 48 h
RPMI-8226 = assay: Growth inhibition of human RPMI8226 cells after 48 hrs by SRB assay; type: functional; settings: RPMI-8226, 48 h
NCI-H23 = assay: Growth inhibition of human NCI-H23 cells after 48 hrs by SRB assay; type: functional; settings: NCI-H23, 48 h
NCI-H322M = assay: Growth inhibition of human NCI-H322M cells after 48 hrs by SRB assay; type: functional
Malme-3M = assay: Growth inhibition of human MALME-3M cells after 48 hrs by SRB assay; type: functional
MCF7 [15] = assay: Growth inhibition of human MCF7 cells assessed as cell viability at 4 uM after 24 hrs by MTT assay; type: functional, cell-based
COLO 205 = assay: Growth inhibition of human COLO205 cells after 48 hrs by SRB assay; type: functional; settings: COLO 205, 48 h
NCI-H226 = assay: Growth inhibition of human NCI-H226 cells after 48 hrs by SRB assay; type: functional; settings: NCI-H226, 48 h
[16] = Growth inhibition of human RXF393 cells after 48 hrs by SRB assay; type: functional; settings: RXF 393, 48 h
[17] = Growth inhibition of human OVCAR4 cells after 48 hrs by SRB assay; type: functional; settings: OVCAR-4, 48 h
U-251 = assay: Growth inhibition of human U251 cells after 48 hrs by SRB assay; type: functional; settings: U-251, 48 h
MCF7 [18] = assay: Cell cycle arrest in human MCF7 cells assessed as accumulation at G0/G1 phase at 4 uM after 24 hrs by propidium iodide staining-based flow cytometry (reference value: 64.04%); type: functional
SW-620 = assay: Growth inhibition of human SW620 cells after 48 hrs by SRB assay; type: functional; settings: SW-620, 48 h
[19] = Growth inhibition of human Hs578T cells after 48 hrs by SRB assay; type: functional; settings: Hs-578T
MCF7 [20] = assay: Growth inhibition of human MCF7 cells after 48 hrs by SRB assay; type: functional; settings: MCF7, 48 h
A498 = assay: Growth inhibition of human A498 cells after 48 hrs by SRB assay; type: functional; settings: A498, 48 h
[21] = Growth inhibition of human SF295 cells after 48 hrs by SRB assay; type: functional; settings: SF-295, 48 h
[22] = Growth inhibition of human HCC2998 cells after 48 hrs by SRB assay; type: functional; settings: HCC 2998, 48 h
MDA-MB-231 = assay: Growth inhibition of human MDA-MB-231 cells after 48 hrs by SRB assay; type: functional; settings: MDA-MB-231, 48 h
[23] = Growth inhibition of human OVCAR3 cells after 48 hrs by SRB assay; type: functional; settings: OVCAR-3, 48 h
MDA-MB-435 = assay: Growth inhibition of human MDA-MB-435 cells after 48 hrs by SRB assay; type: functional; settings: MDA-MB-435, 48 h
[24] = Growth inhibition of human EKVX cells after 48 hrs by SRB assay; type: functional
SF-268 = assay: Growth inhibition of human SF268 cells after 48 hrs by SRB assay; type: functional; settings: SF-268, 48 h
MCF7 [25] = assay: Induction of apoptosis in human MCF7 cells expressing P21 promoter -145/+8 with luciferase gene assessed as upregulation of p21 protein expression at 4 uM by Western blot analysis relative to control; type: functional, cell-based

With COc1cc(C(=O)/C=C/c2c(C(F)(F)F)nc3ccccn23)cc(OC)c1OC the GI50 [1] was 3.39 µM, the GI50 (K562) was 2.83 µM and the Activity (MCF7 [2]) was 0.66%. It also gave a GI50 (SK-MEL-2) of 2.43 µM, a GI50 (SNB-19) of 1.93 µM and a GI50 [3] of 1.41 µM. For the same compound, the GI50 [4] was 3.73 µM, the GI50 (SK-MEL-28) was 1.93 µM and the GI50 (HL-60(TB)) was 4.12 µM. For the same compound, the GI50 [5] was 1.49 µM, the GI50 (T47D) was 3.52 µM and the GI50 (KM12) was 1.73 µM. The GI50 [6] was 1.64 µM, the GI50 (CCRF-CEM) was 4.15 µM and the Activity (MCF7 [7]) was 4.1%. The GI50 [8] was 1.63 µM, the GI50 [9] was 1.66 µM and the GI50 (786-0) was 1.72 µM. It also gave a GI50 (HCT-116) of 1.26 µM, a GI50 (DU-145) of 1.61 µM and a GI50 (SN12C) of 2.09 µM. The GI50 [10] was 1.98 µM, the GI50 [11] was 2.05 µM and the GI50 (ACHN) was 1.95 µM. The GI50 [12] was 2.65 µM, the GI50 [13] was 2.1 µM and the GI50 (SNB-75) was 1.76 µM. It also gave a GI50 (TK-10) of 2.09 µM, a GI50 (SK-MEL-5) of 1.62 µM and a GI50 (MDA-MB-468) of 2.12 µM. For the same compound, the GI50 (CAKI-1) was 1.82 µM, the GI50 (A549) was 4.04 µM and the GI50 (HT-29) was 1.93 µM. For the same compound, the GI50 (SK-OV-3) was 4.04 µM, the GI50 (NCI-H522) was 1.77 µM and the GI50 (HOP-62) was 2.97 µM. It also gave a GI50 (M14) of 1.82 µM, a GI50 (SR) of 2.91 µM and a GI50 (PC-3) of 3.8 µM. The GI50 [14] was 1.66 µM, the GI50 (IGROV-1) was 2.23 µM and the GI50 (NCI-H460) was 2.01 µM. It also gave a GI50 (RPMI-8226) of 1.98 µM, a GI50 (NCI-H23) of 1.51 µM and a GI50 (NCI-H322M) of 1.66 µM. For the same compound, the GI50 (Malme-3M) was 1.57 µM, the inhibition (MCF7 [15]) was “Active” and the GI50 (COLO 205) was 2.11 µM. The GI50 (NCI-H226) was 3.55 µM, the GI50 [16] was 1.87 µM and the GI50 [17] was 4.1 µM. The GI50 (U-251) was 1.29 µM, the Activity (MCF7 [18]) was 95.24% and the GI50 (SW-620) was 1.68 µM. The GI50 [19] was 3.27 µM, the GI50 (MCF7 [20]) was 1.44 µM and the GI50 (A498) was 2.4 µM. For the same compound, the GI50 [21] was 1.99 µM, the GI50 [22] was 1.83 µM and the GI50 (MDA-MB-231) was 4.59 µM. The GI50 [23] was 1.83 µM, the GI50 (MDA-MB-435) was 2.26 µM and the GI50 [24] was 2.37 µM. For the same compound, the GI50 (SF-268) was 1.64 µM.

In the case of COc1cccc2c1C(=O)c1c(O)c3c(c(O)c1C2=O)C[C@@](O)(C(=O)CO)C[C@@H]3O[C@H]1C[C@H](N)[C@H](O)[C@H](C)O1 [DOXORUBICIN], the Activity (MCF7 [2]) is reported as 1.15%, the Activity (MCF7 [7]) is reported as 4% and the inhibition (MCF7 [15]) is reported as “Active”. For the same compound, the Activity (MCF7 [18]) was 94.85% and the Activity (MCF7 [25]) was “Active”.
